{
  "source": "patent US12240862B2",
  "about": "“Inhibitors of peptidylarginine deiminases” (Gilead Sciences, Inc., priority 2020, dated 2025)",
  "data": [
    {"molecular_target": "T1, human PAD4 (Homo sapiens, UniProt Q9UM07)", "T1 construct": "human PAD4 (NM_012387), A2P663, was PCR amplified; His-SUMO (N, cleaved yes); made in house; host or cells: E. coli BL21(DE3)", "T1 sequence (Q9UM07 2-663)": "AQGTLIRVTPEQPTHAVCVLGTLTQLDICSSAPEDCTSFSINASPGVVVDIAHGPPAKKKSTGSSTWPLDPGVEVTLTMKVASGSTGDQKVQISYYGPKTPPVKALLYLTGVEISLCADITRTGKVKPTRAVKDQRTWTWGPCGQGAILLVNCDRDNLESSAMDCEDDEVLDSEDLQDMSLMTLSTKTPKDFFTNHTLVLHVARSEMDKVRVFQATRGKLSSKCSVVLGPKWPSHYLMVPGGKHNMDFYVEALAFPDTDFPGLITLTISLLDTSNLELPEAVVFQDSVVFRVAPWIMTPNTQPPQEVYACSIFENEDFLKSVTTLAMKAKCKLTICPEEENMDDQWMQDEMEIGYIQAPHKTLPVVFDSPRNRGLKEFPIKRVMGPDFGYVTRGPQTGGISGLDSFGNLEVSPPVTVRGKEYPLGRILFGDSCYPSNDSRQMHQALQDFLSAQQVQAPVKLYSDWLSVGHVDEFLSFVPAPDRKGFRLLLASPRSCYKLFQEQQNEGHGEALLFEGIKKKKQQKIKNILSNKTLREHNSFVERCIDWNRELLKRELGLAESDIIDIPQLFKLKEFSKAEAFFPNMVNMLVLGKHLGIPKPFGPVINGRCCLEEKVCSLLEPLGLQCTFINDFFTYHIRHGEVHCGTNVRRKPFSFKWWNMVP", "assay": "In vitro PAD4 BAEE biochemical assay", "details": "human PAD4, BAEE substrate; 5 nM PAD4, 2 mM calcium chloride, 3 mM BAEE; geometric mean of multiple experiments", "in_short": "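Ammonia release from BAEE deimination monitored by o-phthalaldehyde amine coupling (1 h, 25 °C) after EDTA stop. Final conditions: 5 nM tag-free recombinant human PAD4 (E. coli), 2 mM CaCl2, 3 mM BAEE, pH 7.6 MOPS with DTT; 30 min compound preincubation, then 2 h reaction at 25 °C.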", "units": {"IC50": "nM"}, "values": [
      {"molecule": "COc1cc(C(=O)N2[C@H]3CC[C@@H]2[C@H](N)C3)cc2nc(-c3cc4ccc(N5[C@H](C)CCCS5(=O)=O)nc4n3CC3CC3)c(C)n12", "note": "[Example 463, [(1~{R},2~{R},4~{S})-2-amino-7-azabicyclo [2.2.1]heptan-7-yl]-[2-[1-(cyclopropylmethyl)-6-[(3~{R})-3-methyl-1,1-dioxothiazinan-2-yl]pyrrolo[2,3-b]pyridin-2-yl]-5-methoxy-3-methylimidazo [1,2-a]pyridin-7-yl] methanone]", "IC50": 133},
      {"molecule": "COc1cc(C(=O)N2[C@H]3CC[C@@H]2[C@H](N)C3)cc2nc(-c3cc4ccc(N5CCCOC5=O)nc4n3CC3CC3)c(C)n12", "note": "[Example 464, 3-[2-[7-[(1~{R},2~{R}, 4~{S})-2-amino-7-azabicyclo[2.2.1]heptane-7-carbonyl]-5-methoxy-3-methylimidazo[1,2-a]pyridin-2-yl]-1-(cyclopropylmethyl)pyrrolo [2,3-b]pyridin-6-yl]-1,3-oxazinan-2-one]", "IC50": 100},
      {"molecule": "COC(=O)N(C)c1ccc2cc(-c3nc4cc(C(=O)N5[C@H]6CC[C@@H]5[C@H](N)C6)cc(OC)n4c3C)n(CC3CC3)c2n1", "note": "[Example 465, methyl~{N}-[2-[7-[(1~{R},2~{R},4~{S})-2-amino-7-azabicyclo[2.2.1]heptane-7-carbonyl]-5-methoxy-3-methylimidazo [1,2-a]pyridin-2-yl]-1-(cyclopropylmethyl)pyrrolo [2,3-b]pyridin-6-yl]-~{N}-methylcarbamate]", "IC50": 85.6},
      {"molecule": "CCOC(=O)N(C)c1ccc2cc(-c3nc4cc(C(=O)N5[C@H]6CC[C@@H]5[C@H](N)C6)cc(OC)n4c3C)n(CC3CC3)c2n1", "note": "[Example 466, ethyl~{N}-[2-[7-[(1~{R},2~{R},4~{S})-2-amino-7-azabicyclo[2.2.1]heptane-7-carbonyl]-5-methoxy-3-methylimidazo [1,2-a]pyridin-2-yl]-1-(cyclopropylmethyl)pyrrolo [2,3-b]pyridin-6-yl]-~{N}-methylcarbamate]", "IC50": 143},
      {"molecule": "COc1cc(C(=O)N2[C@H]3CC[C@@H]2[C@H](N)C3)cc2nc(-c3cc4ccc(N5c6ccccc6CS5(=O)=O)nc4n3CC3CC3)c(C)n12", "note": "[Example 467, [(1~{R},2~{R},4~{S})-2-amino-7-azabicyclo [2.2.1]heptan-7-yl]-[2-[1-(cyclopropylmethyl)-6-(2,2-dioxo-3~{H}-2,1-benzothiazol-1-yl)pyrrolo [2,3-b]pyridin-2-yl]-5-methoxy-3-methylimidazo [1,2-a]pyridin-7-yl] methanone]", "IC50": 361},
      {"molecule": "COc1cc(C(=O)N2[C@H]3CC[C@@H]2[C@H](N)C3)cc2nc(-c3cc4ccc(N5c6ccccc6CCS5(=O)=O)nc4n3CC3CC3)c(C)n12", "note": "[Example 468, [(1~{R},2~{R},4~{S})-2-amino-7-azabicyclo [2.2.1]heptan-7-yl]-[2-[1-(cyclopropylmethyl)-6-(2,2-dioxo-3,4-dihydro-2$l^6,1-benzothiazin-1-yl)pyrrolo[2,3-b]pyridin-2-yl]-5-methoxy-3-methylimidazo[1,2-a]pyridin-7-yl]methanone]", "IC50": 238},
      {"molecule": "COc1cc(C(=O)N2[C@H]3CC[C@@H]2[C@H](N)C3)cc2nc(-c3cc4ccc(N5CCCC(c6ccccc6)S5(=O)=O)nc4n3CC3CC3)c(C)n12", "note": "(some centres unmarked) [Example 469, [(1~{R},2~{R},4~{S})-2-amino-7-azabicyclo [2.2.1]heptan-7-yl]-[2-[1-(cyclopropylmethyl)-6-(1,1-dioxo-6-phenylthiazinan-2-yl)pyrrolo[2,3-b]pyridin-2-yl]-5-methoxy-3-methylimidazo[1,2-a]pyridin-7-yl]methanone]", "IC50": 781},
      {"molecule": "CCN(C(=O)OC)c1ccc2cc(-c3nc4cc(C(=O)N5[C@H]6CC[C@@H]5[C@H](N)C6)cc(OC)n4c3C)n(CC3CC3)c2n1", "note": "[Example 470, methyl~{N}-[2-[7-[(1~{R},2~{R},4~{S})-2-amino-7-azabicyclo[2.2.1]heptane-7-carbonyl]-5-methoxy-3-methylimidazo [1,2-a]pyridin-2-yl]-1-(cyclopropylmethyl)pyrrolo [2,3-b]pyridin-6-yl]-~{N}-ethylcarbamate]", "IC50": 165},
      {"molecule": "[2H]C([2H])([2H])N(c1ccc2cc(-c3nc4cc(C(=O)N5C[C@H]6CC[C@@H]5[C@@H]6N)cc(OC)n4c3C)n(CC3CC3)c2n1)S(=O)(=O)Cc1ccccc1", "note": "[Example 471, N-[2-[7-[(1R,4R,7R)-7-amino-2-azabicyclo[2.2.1]heptane-2-carbonyl]-5-methoxy-3-methyl-imidazo [1,2-a]pyridin-2-yl]-1-(cyclopropylmethyl)pyrrolo[2,3-b]pyridin-6-yl]-1-phenyl-N-(trideuteriomethyl) methanesulfonamide]", "IC50": 1360},
      {"molecule": "COc1cc(C(=O)N2[C@H]3CC[C@@H]2[C@H](N)C3)cc2nc(-c3cc4ccc(N5[C@@H]6CC[C@@H](C6)CS5(=O)=O)nc4n3CC3CC3)c(C)n12", "note": "[Example 473, [(1~{R},2~{R},4~{S})-2-amino-7-azabicyclo [2.2.1]heptan-7-yl]-[2-[1-(cyclopropylmethyl)-6-[(1~ {R},5~{S})-3,3-dioxo-3$l^6-thia-2-azabicyclo[3.2.1]octan-2-yl]pyrrolo [2,3-b]pyridin-2-yl]-5-methoxy-3-methylimidazo [1,2-a]pyridin-7-yl] methanone]", "IC50": 117},
      {"molecule": "COc1cc(C(=O)N2[C@H]3CC[C@@H]2[C@H](N)C3)cc2nc(-c3cc4ccc(N5CCCCS5(=O)=O)nc4n3CC3CC3)c(C)n12", "note": "[Example 474, [(1~{R},2~{R},4~{S})-2-amino-7-azabicyclo [2.2.1]heptan-7-yl]-[2-[1-(cyclopropylmethyl)-6-(1,1-dioxothiazinan-2-yl)pyrrolo [2,3-b]pyridin-2-yl]-5-methoxy-3-methylimidazo [1,2-a]pyridin-7-yl]methanone]", "IC50": 44.2},
      {"molecule": "CCN(c1ccc2cc(-c3nc4cc(C(=O)N5[C@H]6CC[C@@H]5[C@H](N)C6)cc(OC)n4c3C)n(CC3CC3)c2n1)S(C)(=O)=O", "note": "[Example 475, ~{N}-[2-[7-[(1~{R},2~{R}, 4~{S})-2-amino-7-azabicyclo[2.2.1]heptane-7-carbonyl]-5-methoxy-3-methylimidazo[1,2-a]pyridin-2-yl]-1-(cyclopropylmethyl)pyrrolo [2,3-b]pyridin-6-yl]-~{N}-ethylmethanesulfonamide]", "IC50": 75.1},
      {"molecule": "COc1cc(C(=O)N2[C@H]3CC[C@@H]2[C@H](N)C3)cc2nc(-c3cc4ccc(N(C)S(C)(=O)=O)nc4n3CC3CC3)c(C)n12", "note": "[Example 476, ~{N}-[2-[7-[(1~{R}, 2~{R},4~{S})-2-amino-7-azabicyclo[2.2.1]heptane-7-carbonyl]-5-methoxy-3-methylimidazo[1,2-a]pyridin-2-yl]-1-(cyclopropylmethyl)pyrrolo[2,3-b]pyridin-6-yl]-~{N}-methylmethanesulfonamide]", "IC50": 46.8},
      {"molecule": "COc1cc(C(=O)N2[C@H]3CC[C@@H]2[C@H](N)C3)cc2nc(-c3cc4ccc(N(C5CCC5)S(C)(=O)=O)nc4n3CC3CC3)c(C)n12", "note": "[Example 477, ~{N}-[2-[7-[(1~{R}, 2~{R},4~{S})-2-amino-7-azabicyclo[2.2.1]heptane-7-carbonyl]-5-methoxy-3-methylimidazo[1,2-a]pyridin-2-yl]-1-(cyclopropylmethyl)pyrrolo [2,3-b]pyridin-6-yl]-~{N}-cyclobutylmethane-sulfonamide]", "IC50": 100}
    ]}
  ]
}
